Measurements published in PubChem BioAssay AID1919010 (Molecular Pharmacology Branch, DTP, NCI, 2023).
Several values for one entry are separate records, joined by “and”; a condition that tells them apart may be missing. Identical values can stand only once.

Tested on: Hs578T complex spheroid growth, percent test/control
Test: Anticancer human tumor Hs578T cell line growth inhibition [AhR];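 also: luminescent viability signal as a proxy for spheroid growth; spheroids exposed to agents for one week after three days of growth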
Conditions: for viability, T/C: stronger effect = lower value
In short: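 Complex tumor spheroids co-cultured with HUVEC and human MSC stroma; AhR antagonists tested in combination with standard-of-care and investigational agents. Top concentration at or near clinical Cmax (else 10 microM), half-log dilutions; growth expressed as percent test/control.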

[1] = curve of first compound, second compound 0.1 µM
[2] = curve of first compound, second compound 0.316 µM
[3] = curve of first compound, second compound 1 µM
[4] = curve of first compound, second compound 3.16 µM
[5] = curve of first compound, second compound 10 µM

In the case of `CC(C)CC(NC(=O)C(Cc1ccccc1)NC(=O)c1cnccn1)B(O)O` (configuration not stated) + Cc1cncc(-c2nc(NCCc3c[nH]c4ccccc34)c3ncn(C(C)C)c3n2)c1, the IC50 [1] is reported as 7 nM, the IC50 [2] is reported as 6.66 nM and the IC50 [3] is reported as 5.92 nM. For the same compound, the IC50 [4] was 3.77 nM, the IC50 [5] was under 0.949 nM and the viability, T/C (second compound 0.1 µM, first compound 0.000949 µM) was 101%. It also gave a viability, T/C (second compound 0.1 µM, first compound 0.003 µM) of 101%, a viability, T/C (second compound 0.1 µM, first compound 0.00949 µM) of 31.8% and a viability, T/C (second compound 0.1 µM, first compound 0.03 µM) of 0.32%. It also gave a viability, T/C (second compound 0.1 µM, first compound 0.0949 µM) of 0.25%, a viability, T/C (second compound 0.1 µM, first compound 0.3 µM) of 0.36% and a viability, T/C (second compound 0.316 µM, first compound 0.000949 µM) of 112%. The viability, T/C (second compound 0.316 µM, first compound 0.003 µM) was 101%, the viability, T/C (second compound 0.316 µM, first compound 0.00949 µM) was 27.3% and the viability, T/C (second compound 0.316 µM, first compound 0.03 µM) was 0.39%. For the same compound, the viability, T/C (second compound 0.316 µM, first compound 0.0949 µM) was 0.31%, the viability, T/C (second compound 0.316 µM, first compound 0.3 µM) was 0.31% and the viability, T/C (second compound 1 µM, first compound 0.000949 µM) was 97.8%. The viability, T/C (second compound 1 µM, first compound 0.003 µM) was 86.5%, the viability, T/C (second compound 1 µM, first compound 0.00949 µM) was 24.8% and the viability, T/C (second compound 1 µM, first compound 0.03 µM) was 0.28%. It also gave a viability, T/C (second compound 1 µM, first compound 0.0949 µM) of 0.19%, a viability, T/C (second compound 1 µM, first compound 0.3 µM) of 0.29% and a viability, T/C (second compound 3.16 µM, first compound 0.000949 µM) of 69.4%. It also gave a viability, T/C (second compound 3.16 µM, first compound 0.003 µM) of 58%, a viability, T/C (second compound 3.16 µM, first compound 0.00949 µM) of 17.3% and a viability, T/C (second compound 3.16 µM, first compound 0.03 µM) of 0.24%. It also gave a viability, T/C (second compound 3.16 µM, first compound 0.0949 µM) of 0.24%, a viability, T/C (second compound 3.16 µM, first compound 0.3 µM) of 0.28% and a viability, T/C (second compound 10 µM, first compound 0.000949 µM) of 5.56%. The viability, T/C (second compound 10 µM, first compound 0.003 µM) was 6.44%, the viability, T/C (second compound 10 µM, first compound 0.00949 µM) was 1.16% and the viability, T/C (second compound 10 µM, first compound 0.03 µM) was 0.57%. For the same compound, the viability, T/C (second compound 10 µM, first compound 0.0949 µM) was 0.26% and the viability, T/C (second compound 10 µM, first compound 0.3 µM) was 0.36%.
For `CC1(C)CCC(CN2CCN(c3ccc(C(=O)NS(=O)(=O)c4ccc(NCC5CCOCC5)c([N+](=O)[O-])c4)c(Oc4cnc5[nH]ccc5c4)c3)CC2)=C(c2ccc(Cl)cc2)C1` + Cc1ccccc1N=Nc1ccc(NC(=O)c2ccnn2C)c(C)c1, the IC50 [1] was over 10000 nM, the IC50 [2] was over 10000 nM and the IC50 [3] was over 10000 nM. It also gave an IC50 [4] of over 10000 nM, an IC50 [5] of over 10000 nM and a viability, T/C (second compound 0.1 µM, first compound 0.0316 µM) of 117%. It also gave a viability, T/C (second compound 0.1 µM, first compound 0.1 µM) of 106%, a viability, T/C (second compound 0.1 µM, first compound 0.316 µM) of 100% and a viability, T/C (second compound 0.1 µM, first compound 1 µM) of 101%. The viability, T/C (second compound 0.1 µM, first compound 3.16 µM) was 97.3%, the viability, T/C (second compound 0.1 µM, first compound 10 µM) was 65.1% and the viability, T/C (second compound 0.316 µM, first compound 0.0316 µM) was 106%. The viability, T/C (second compound 0.316 µM, first compound 0.1 µM) was 106%, the viability, T/C (second compound 0.316 µM, first compound 0.316 µM) was 113% and the viability, T/C (second compound 0.316 µM, first compound 1 µM) was 109%. For the same compound, the viability, T/C (second compound 0.316 µM, first compound 3.16 µM) was 95.9%, the viability, T/C (second compound 0.316 µM, first compound 10 µM) was 65.8% and the viability, T/C (second compound 1 µM, first compound 0.0316 µM) was 103%. It also gave a viability, T/C (second compound 1 µM, first compound 0.1 µM) of 105%, a viability, T/C (second compound 1 µM, first compound 0.316 µM) of 108% and a viability, T/C (second compound 1 µM, first compound 1 µM) of 94.8%. It also gave a viability, T/C (second compound 1 µM, first compound 3.16 µM) of 97.2%, a viability, T/C (second compound 1 µM, first compound 10 µM) of 75.4% and a viability, T/C (second compound 3.16 µM, first compound 0.0316 µM) of 94.7%. It also gave a viability, T/C (second compound 3.16 µM, first compound 0.1 µM) of 95.9%, a viability, T/C (second compound 3.16 µM, first compound 0.316 µM) of 102% and a viability, T/C (second compound 3.16 µM, first compound 1 µM) of 90.3%. It also gave a viability, T/C (second compound 3.16 µM, first compound 3.16 µM) of 89.5%, a viability, T/C (second compound 3.16 µM, first compound 10 µM) of 69.3% and a viability, T/C (second compound 10 µM, first compound 0.0316 µM) of 66.1%. It also gave a viability, T/C (second compound 10 µM, first compound 0.1 µM) of 65.3%, a viability, T/C (second compound 10 µM, first compound 0.316 µM) of 65.9% and a viability, T/C (second compound 10 µM, first compound 1 µM) of 68.9%. The viability, T/C (second compound 10 µM, first compound 3.16 µM) was 67.2% and the viability, T/C (second compound 10 µM, first compound 10 µM) was 64.3%.
`CC[C@@]1(O)C(=O)OCc2c1cc1n(c2=O)Cc2cc3c(CN(C)C)c(O)ccc3nc2-1` was tested, and the viability, T/C (compound 0.000316 µM) was 94.7% and 97.6% and 107%, the viability, T/C (compound 0.001 µM) was 106% and 98.2% and 103% and the viability, T/C (compound 0.00316 µM) was 105% and 90.3% and 95.3%. For the same compound, the viability, T/C (compound 0.01 µM) was 96.5% and 72.5% and 96.3%, the viability, T/C (compound 0.0316 µM) was 76.8% and 64.2% and 77.9% and the viability, T/C (compound 0.1 µM) was 69.3% and 71.8% and 68.2%. It also gave an IC50 (curve of compound) of over 100 nM.
